Patent publication US10745382B2 (BRISTOL-MYERS SQUIBB COMPANY, priority 2015, dated 2020)
pIC50: −log10 of the molar value.

target: T1, PD-1/PD-L1 (Homo sapiens, UniProt Q9NZQ7); assay: PD-1/PD-L1 Homogenous Time-Resolved Fluorescence (HTRF) binding assay; conditions: PD-L1-His 10 nM, PD-1-Ig 20 nM; numeric IC50; read-out: Range or IC50
T1 construct: made in house; host or cells: HEK293T
Method in brief: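 Read-out is time-resolved FRET between europium cryptate-labelled anti-Ig (1 nM final) and APC-labelled anti-His (20 nM final), both dispensed onto the binding mix. Assay buffer: dPBS containing 0.1% bovine serum albumin and 0.05% Tween-20.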

T1 sequence (Q9NZQ7 with tags, fused parts or gaps): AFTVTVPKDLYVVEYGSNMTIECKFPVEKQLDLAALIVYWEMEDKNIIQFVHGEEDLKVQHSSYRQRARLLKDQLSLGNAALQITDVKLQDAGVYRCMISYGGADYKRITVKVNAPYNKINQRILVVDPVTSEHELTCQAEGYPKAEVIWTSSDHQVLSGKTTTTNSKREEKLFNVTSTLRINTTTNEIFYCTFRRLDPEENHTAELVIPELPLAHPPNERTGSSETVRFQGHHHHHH

Structure (SMILES)	pIC50
Cc1c(COc2cc(OCc3cncc(C#N)c3)c(CNC(CO)(CO)CO)cc2Cl)cccc1-c1cccc(OCCCNC(CO)(CO)CO)c1C [Example 2281, 5-((4-chloro-2-(((1,3-dihydroxy-2-(hydroxymethyl)propan-2-yl)amino)methyl)-5-((3′-(3-((1,3-dihydroxy-2-(hydroxymethyl)propan-2-yl)amino)propoxy)-2,2′-dimethyl-[1,1′-biphenyl]-3-yl)methoxy)phenoxy)methyl)nicotinonitrile]	8.52

same assay, conditions: PD-L1-His 10 nM, PD-1-Ig 20 nM; value given as range class; read-out: Range or IC50

Structure (SMILES)	pIC50
Cc1c(COc2cc(OCc3cncc(C#N)c3)c(CN[C@](C)(CO)C(=O)O)cc2Cl)cccc1-c1cccc(OCCCN2CC(N(C)C)C2)c1Cl [Example 2013, (R)-2-((5-chloro-4-((2′-chloro-3′-(3-(3-(dimethylamino)azetidin-1-yl)propoxy)-2-methyl-[1,1′-biphenyl]-3-yl)methoxy)-2-((5-cyanopyridin-3-yl)methoxy)benzyl)amino)-3-hydroxy-2-methylpropanoic Acid]	8.00 to 9.68
Cc1c(COc2cc(OCc3cncc(C#N)c3)c(CN3CCCC[C@H]3C(=O)O)cc2Cl)cccc1-c1cccc(OCCCN2CC[C@@H](O)C2)c1F [Example 1520, (S)-1-(5-chloro-2-((5-cyanopyridin-3-yl)methoxy)-4-((2′-fluoro-3′-(3-((R)-3-hydroxypyrrolidin-1-yl)propoxy)-2-methyl-[1,1′-biphenyl]-3-yl)methoxy)benzyl)piperidine-2-carboxylic acid]	8.00 to 9.68
Cc1c(COc2cc(OCc3cncc(C#N)c3)c(CO)cc2Cl)cccc1-c1cccc(OCCCNC[C@H](O)CO)c1Cl [Example 2005, (S)-5-((4-chloro-5-((2′-chloro-3′-(3-((2,3-dihydroxypropyl)amino)propoxy)-2-methyl-[1,1′-biphenyl]-3-yl)methoxy)-2-(hydroxymethyl)phenoxy)methyl)nicotinonitrile]	8.00 to 9.68
CC[C@@H](C(=O)O)N(C)Cc1cc(Cl)c(OCc2cccc(-c3cccc(OCCCN4CC[C@@H](O)C4)c3C)c2C)cc1OCc1cncc(C#N)c1 [Example 4133, (S)-2-((5-chloro-2-((5-cyanopyridin-3-yl)methoxy)-4-((3′-(3-((R)-3-hydroxypyrrolidin-1-yl)propoxy)-2,2′-dimethyl-[1,1′-biphenyl]-3-yl)methoxy)benzyl)(methyl)amino)butanoic Acid]	8.00 to 9.68
Cc1c(COc2cc(OCc3cncc(C#N)c3)c(CN[C@@H](Cc3ccccc3)C(=O)O)cc2Cl)cccc1-c1cccc(OCCCN2CC[C@@H](O)C2)c1C [Example 4152, (5-chloro-2-((5-cyanopyridin-3-yl)methoxy)-4-((3′-(3-((R)-3-hydroxypyrrolidin-1-yl)propoxy)-2,2′-dimethyl-[1,1′-biphenyl]-3-yl)methoxy)benzyl)-L-phenylalanine]	8.00 to 9.68
Cc1c(COCCN2CC[C@@H](O)C2)cccc1-c1cccc(COc2cc(OCc3cncc(C#N)c3)c(CNC(CO)(CO)CO)cc2Cl)c1C [Example 4125, (R)-5-((4-chloro-2-(((1,3-dihydroxy-2-(hydroxymethyl)propan-2-yl)amino)methyl)-5-((3′-((2-(3-hydroxypyrrolidin-1-yl)ethoxy)methyl)-2,2′-dimethyl-[1,1′-biphenyl]-3-yl)methoxy)phenoxy)methyl)nicotinonitrile]	8.00 to 9.68
COc1cc(OCc2cccc(-c3cccc(OCCCN4CC[C@@H](O)C4)c3C)c2C)c(Cl)cc1CN[C@](C)(CO)C(=O)O [Example 3034, (2R)-2-((5-chloro-4-((3′-(3-((R)-3-hydroxypyrrolidin-1-yl)propoxy)-2,2′-dimethyl-[1,1′-biphenyl]-3-yl)methoxy)-2-methoxybenzyl)amino)-3-hydroxy-2-methylpropanoic Acid]	8.00 to 9.68
CCCC[C@H](NCc1cc(Cl)c(OCc2cccc(-c3cccc(OCCCN4CC[C@@H](O)C4)c3C)c2C)cc1OCc1cncc(C#N)c1)C(=O)O [Example 4151, (S)-2-((5-chloro-2-((5-cyanopyridin-3-yl)methoxy)-4-((3′-(3-((R)-3-hydroxypyrrolidin-1-yl)propoxy)-2,2′-dimethyl-[1,1′-biphenyl]-3-yl)methoxy)benzyl)amino)hexanoic Acid]	8.00 to 9.68
Cc1c(COc2cc(OCc3cncc(C#N)c3)c(CN[C@@](C)(CO)C(=O)O)cc2Cl)cccc1-c1cccc(OCCCN2CCCCC2)c1C [Example 2272, (S)-2-((5-chloro-2-((5-cyanopyridin-3-yl)methoxy)-4-((2,2′-dimethyl-3′-(3-(piperidin-1-yl)propoxy)-[1,1′-biphenyl]-3-yl)methoxy)benzyl)amino)-3-hydroxy-2-methylpropanoic Acid]	8.00 to 9.68
Cc1c(COc2cc(OCc3cncc(C#N)c3)c(CNC(CO)CO)cc2Cl)cccc1-c1cccc(C(=O)NCCN2CCS(=O)(=O)CC2)c1C [Example 4005, 3′-((2-chloro-5-((5-cyanopyridin-3-yl)methoxy)-4-(((1,3-dihydroxypropan-2-yl)amino)methyl)phenoxy)methyl)-N-(2-(1,1-dioxidothiomorpholino)ethyl)-2,2′-dimethyl-[1,1′-biphenyl]-3-carboxamide]	8.00 to 9.68
Cc1c(COc2cc(OCc3cncc(C#N)c3)c(CN3CC[C@H]3C(=O)O)cc2Cl)cccc1-c1cccc(OCCC(=O)N2CC[C@@H](O)C2)c1 [Example 1012, (S)-1-(5-chloro-2-((5-cyanopyridin-3-yl)methoxy)-4-((3′-(3-((R)-3-hydroxypyrrolidin-1-yl)-3-oxopropoxy)-2-methyl-[1,1′-biphenyl]-3-yl)methoxy)benzyl)azetidine-2-carboxylic Acid]	8.00 to 9.68
Cc1c(COc2cc(OCc3cncc(C#N)c3)c(CN[C@](C)(CO)C(=O)O)cc2Cl)cccc1-c1cccc(OCCCN2CCC(O)(C(=O)O)C2)c1C (stereo partly drawn) [Example 1054, 1-(3-((3′-((4-((((R)-2-carboxy-1-hydroxypropan-2-yl)amino)methyl)-2-chloro-5-((5-cyanopyridin-3-yl)methoxy)phenoxy)methyl)-2,2′-dimethyl-[1,1′-biphenyl]-3-yl)oxy)propyl)-3-hydroxypyrrolidine-3-carboxylic Acid]	8.00 to 9.68
Cc1c(COc2cc(OCc3cncc(C#N)c3)c(CN(C)C(C)(CO)CO)cc2Cl)cccc1-c1cccc(OCCCN2CCC(F)(F)C2)c1C [Example 4114, 5-((4-chloro-5-((3′-(3-(3,3-difluoropyrrolidin-1-yl)propoxy)-2,2′-dimethyl-[1,1′-biphenyl]-3-yl)methoxy)-2-(((1,3-dihydroxy-2-methylpropan-2-yl)(methyl)amino)methyl)phenoxy)methyl)nicotinonitrile]	8.00 to 9.68
Cc1c(COc2cc(OCc3cncc(S(C)(=O)=O)c3)c(CN3CCCC[C@H]3C(=O)O)cc2Cl)cccc1-c1cccc(OCCCN2CC[C@@H](O)C2)c1 [Example 1022, (S)-1-(5-chloro-4-((3′-(3-((R)-3-hydroxypyrrolidin-1-yl)propoxy)-2-methyl-[1,1′-biphenyl]-3-yl)methoxy)-2-((5-(methylsulfonyl)pyridin-3-yl)methoxy)benzyl)piperidine-2-carboxylic Acid]	8.00 to 9.68
Cc1c(COc2cc(OCc3cncc(C#N)c3)c(CN3CCCC[C@H]3C(=O)O)cc2Cl)cccc1-c1cccc(O[C@@H](C)CCN2CC[C@@H](O)C2)c1Cl [Example 1522, (S)-1-(5-chloro-4-((2′-chloro-3′-(((S)-4-((R)-3-hydroxypyrrolidin-1-yl)butan-2-yl)oxy)-2-methyl-[1,1′-biphenyl]-3-yl)methoxy)-2-((5-cyanopyridin-3-yl)methoxy)benzyl)piperidine-2-carboxylic acid]	8.00 to 9.68
Cc1c(COc2cc(OCc3cncc(C#N)c3)c(CN[C@H](CO)C(=O)O)cc2Cl)cccc1-c1cccc(OCCCN2CC[C@@](O)(c3ccc(Cl)cc3)[C@](C)(O)C2)c1Cl [Example 1089, (5-chloro-4-((2′-chloro-3′-(3-((3R,4R)-4-(4-chlorophenyl)-3,4-dihydroxy-3-methylpiperidin-1-yl)propoxy)-2-methyl-[1,1′-biphenyl]-3-yl)methoxy)-2-((5-cyanopyridin-3-yl)methoxy)benzyl)-D-serine]	8.00 to 9.68
Cc1c(COc2cc(OCc3cncc(S(C)(=O)=O)c3)c(CN3CCCC[C@H]3C(=O)O)cc2Cl)cccc1-c1ccc2c(c1)OC(CCN1CCC(O)(CC(=O)O)C1)CO2 (mixture of isomers) [Example 1508, (2S)-1-(4-((3-(3-(2-(3-(carboxymethyl)-3-hydroxypyrrolidin-1-yl)ethyl)-2,3-dihydrobenzo[b][1,4]dioxin-6-yl)-2-methylbenzyl)oxy)-5-chloro-2-((5-(methylsulfonyl)pyridin-3-yl)methoxy)benzyl)piperidine-2-carboxylic acid]	8.00 to 9.68
Cc1c(COc2cc(OCc3cncc(C#N)c3)c(CN(C)[C@@](C)(CO)C(=O)O)cc2Cl)cccc1-c1cccc(OCCCN2CCC(F)(F)C2)c1C [Example 4115, (S)-2-((5-chloro-2-((5-cyanopyridin-3-yl)methoxy)-4-((3′-(3-(3,3-difluoropyrrolidin-1-yl)propoxy)-2,2′-dimethyl-[1,1′-biphenyl]-3-yl)methoxy)benzyl)(methyl)amino)-3-hydroxy-2-methylpropanoic Acid]	8.00 to 9.68
Cc1c(COc2cc(OCc3ccc(F)c(F)c3)c(CNC(C)(CO)CO)cc2Cl)cccc1-c1cccc(OCCCN2CC[C@@H](O)C2)c1C [Example 4510, (R)-2-((5-chloro-2-((3,4-difluorobenzyl)oxy)-4-((3′-(3-(3-hydroxypyrrolidin-1-yl)propoxy)-2,2′-dimethyl-[1,1′-biphenyl]-3-yl)methoxy)benzyl)amino)-2-methylpropane-1,3-diol]	7.00 to 8.00
Cc1c(COc2cc(OCc3cncc(C#N)c3)c(CN[C@@](C)(CO)C(=O)O)cc2Cl)cccc1-c1ccc2c(c1C)OCCO2 [Example 3041, (2S)-2-((5-chloro-2-((5-cyanopyridin-3-yl)methoxy)-4-((2-methyl-3-(5-methyl-2,3-dihydrobenzo[b][1,4]dioxin-6-yl)benzyl)oxy)benzyl)amino)-3-hydroxy-2-methylpropanoic Acid]	8.00 to 9.68
